Reference: article PMC6364417, “Kinase inhibitor library screening identifies synergistic drug combinations effective in sensitive and resistant melanoma cells” (Journal of Experimental & Clinical Cancer Research : CR, 2019)
Blank lines part the entries; values can stand above or below the molecule they belong to.

What was measured:
[1] = test system: A375-GP cells (Dabrafenib-resistant); test: Dose-response curves and IC50, PrestoBlue cell viability, 72 h; format: cell-based, human; conditions: Homo sapiens, n.e. = did not suppress growth below 50% in the tested concentration range, read-out: Half-maximal inhibitory concentration value (IC50), Mean
[2] = test system: melanoma cell lines; conditions: several other melanoma cell lines; cited from earlier work
[3] = test system: A375-XP cells (Vemurafenib-resistant); test: Dose-response curves and IC50, PrestoBlue cell viability, 72 h; format: cell-based, human; conditions: Homo sapiens, n.e. = did not suppress growth below 50% in the tested concentration range, read-out: Half-maximal inhibitory concentration value (IC50), Mean
[4] = test system: NHDF (normal human dermal fibroblasts); test: Dose-response curves and IC50 in non-cancer cells, cell viability, 72 h; conditions: for IC50: Homo sapiens, NHDF, read-out: Half-maximal inhibitory concentration (IC50), NHDF Mean
Procedure: (§1) The IC50 values (nM) were calculated as indicated in Methods.

[5] = test system: NHEM (normal human epidermal melanocytes); test: as above
Procedure: as §1

[6] = test system: A375 cells; test: Synergy determination with the Chou-Talalay method (CompuSyn), cell viability 72 h; format: cell-based, human; conditions: 72 h cell viability, Chou-Talalay / Synergyfinder
[7] = test system: A375 parental cells expressing iRFP; test: Long-term inhibitor treatment, iRFP fluorescence proliferation monitoring; format: cell-based, human
Procedure: A375 parental and BRAFi-resistant cells, virally transduced with the near-infrared fluorescent protein (iRFP) were seeded at a density of 2500 cells/well in a 24-well plate (Greiner) in at least technical triplicates. Inhibitors, single or in combination, were added at the indicated amounts and replenished every 72 h for a duration of 76 days. To assess whether any remaining cells have become resistant to the treatment and would re-emerge, the drugs were removed and the cells underwent “drug holidays” for an additional 21 days. During the long-term treatment, cell proliferation was monitored bi-weekly on a LI-COR Odyssey Infrared Imaging System (LI-COR Biosciences). Fluorescence intensity was quantified with the Image Studio™ Lite software (LI-COR Biosciences).

[8] = test system: A375 cells (parental); test: Dose-response curves and IC50, PrestoBlue cell viability, 72 h; format: cell-based, human; conditions: Homo sapiens, A-375, n.e. = did not suppress growth below 50% in the tested concentration range, read-out: Half-maximal inhibitory concentration value (IC50), Mean
[9] = test system: IGR37-XP cells (Vemurafenib-resistant); test: as above; conditions: Homo sapiens, 72 h, read-out: Half-maximal inhibitory concentration (IC50)
[10] = test system: IGR37-GP cells (Dabrafenib-resistant); test: as above; conditions: Homo sapiens, 72 h, read-out: Half-maximal inhibitory concentration (IC50)
[11] = test system: 501Mel cells (parental); test: as above; conditions: Homo sapiens, 72 h, read-out: Half-maximal inhibitory concentration (IC50)
Procedure: (§2) All inhibitors used in this study were purchased from Selleck Chemicals (Houston, USA). They were dissolved in DMSO to a stock concentration of 10 mM according to the manufacturer’s instructions and stored at − 80 °C. […] Cell viability was measured with the PrestoBlue Cell Viability Reagent (ThermoFisher Scientific) on a CLARIOstar Monochromator microplate reader (BMG Labtech). Using the GraphPad Prism v5.04 software, the half-maximal inhibitor concentration values (IC50) were determined from the curve using the nonlinear log (inhibitor) vs response-variable slope (four parameters) equation. […] The IC50’s were determined for 3 biological replicates and are listed with their standard deviations.
(§3) Values represent the mean of at least three biological replicates; one representative curve of at least 3 biological replicates is depicted. _XP: cells resistant to Vemurafenib (red), _GP: cells resistant to Dabrafenib (green).

[12] = test system: A375 cells (parental sensitive) tumors; test: In vivo assay, subcutaneous melanoma tumors in NSG mice; parameters: species or system NOD scid gamma (NSG) mice; conditions: NSG mice with A375 or A375-XP tumors, 8 days of daily treatment
Procedure: NOD scid gamma (NSG) mice were bred in-house and experiments were performed according to all applicable laws and regulations, after receiving approval by the institution’s animal experimentation ethics committee and the veterinarian service of the Ministry of Agriculture (Permit Number: 18-MDM-01). Single parental sensitive A375 cells (0.5 × 10^6 cells) and Vemurafenib-resistant A375-XP cells (2 × 10^6 cells) were resuspended in 100 μL of 1:1 mixed serum-free medium and matrigel (BD Biosciences) and injected subcutaneously in 6–8 week-old mice. […] Control mice received the respective vehicle by oral gavage and intraperitoneal injection. […] Statistical analysis was done using a two-way ANOVA followed by post-hoc Tukey’s multiple comparison tests.

[13] = test system: IGR37 cells (parental); test: Kinase inhibitor library screening, PrestoBlue cell viability, 1 or 10 μM, 72 h; conditions: IGR37 Parental, in %
[14] = test system: IGR37-GP cells (Dabrafenib-resistant); test: as above; conditions: IGR37 GP, in %
[15] = test system: 501Mel cells (parental); test: as above; conditions: 501Mel Parental, in %
Method in brief: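 Kinase inhibitors added at two fixed concentrations; 72 h exposure; PrestoBlue readout; % viability vs untreated; n ≥ 2 per line.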

[16] = test system: A375-XP cells (Vemurafenib-resistant); test: as above; conditions: A375 XP, in %
[17] = test system: IGR37-XP cells (Vemurafenib-resistant); test: as above; conditions: IGR37 XP, in %
[18] = test system: 501Mel-XP cells (Vemurafenib-resistant); test: as above; conditions: 501Mel XP, in %
[19] = test system: A375 cells (parental); test: as above; conditions: A375 Parental, in %
[20] = test system: A375-GP cells (Dabrafenib-resistant); test: as above; conditions: A375 GP, in %
[21] = test system: 501Mel-GP cells (Dabrafenib-resistant); test: as above; conditions: 501Mel GP, in %
[22] = test system: PARP cleavage; test: Western blot, PARP cleavage in A375 cells; format: cell-based, human; conditions: A375, A375-XP, A375-GP; 24 h treatment
Procedure: (§4) Cells were seeded at a density of 10^5 cells/well in 24-well plates (Greiner). 24 h post seeding, cells were treated with inhibitors at indicated amounts for 3 h and/or 24 h. […] The following primary antibodies were used: anti-phospho-CHK1 (Ser317) (Cell Signalling Technology, 1:1000), anti-CHK1 (Cell Signalling Technology, 1:1000), anti-phospho-cdc2 (Tyr15) (Cell Signalling Technology, 1:1000), anti-cdc2 (Cell Signalling Technology, 1:1000), anti-PARP (Cell Signalling Technology, 1:1000), anti-cleaved-PARP (Cell Signalling Technology, 1:1000), anti-phospho-Erk (Tyr202/Tyr204) (Cell Signalling Technology, 1:2000), anti-Erk1/2 (Santa Cruz, Erk1 = 1:1000, Erk2 = 1:2000), anti-phospho-Akt (Ser473) (Cell Signalling Technology, 1:1500), anti-Akt1/2 (Santa Cruz, 1:1000), anti-Vinculin (Abcam, 1:1000) and anti-Tubulin (Santa Cruz, 1:5000). HRP-labeled secondary antibodies were purchased from Cell Signaling Technology (Boston, MA).

[23] = test system: 501Mel-GP cells (Dabrafenib-resistant); test: Dose-response curves and IC50, PrestoBlue cell viability, 72 h; conditions: Homo sapiens, 72 h, read-out: Half-maximal inhibitory concentration (IC50)
Procedure: as §2

[24] = test system: Tyr15 phosphorylation of CDK1 (P-cdc2); test: Western blot, phospho-cdc2 (Tyr15); format: cell-based, human; conditions: parental and resistant A375 cells, 3 h treatment
Procedure: as §4

[25] = test system: 501Mel-XP cells (Vemurafenib-resistant); test: Dose-response curves and IC50, PrestoBlue cell viability, 72 h; conditions: Homo sapiens, 72 h, read-out: Half-maximal inhibitory concentration (IC50)
Procedure: as §2, §3

[26] = test system: IGR37 cells (parental); test: as above; conditions: Homo sapiens, IGR-37, 72 h, read-out: Half-maximal inhibitory concentration (IC50)
Procedure: as §2, §3

[27] = test system: melanoma tumors; conditions: cited from earlier work

IC50 [1]: 0.257 µM
IC50 [3]: 0.295 µM
SMILES: CO[C@@H](C(=O)N1Cc2n[nH]c(NC(=O)c3ccc(N4CCN(C)CC4)cc3)c2C1)c1ccccc1 [Danusertib]
apoptosis and migration of melanoma cell lines (in words) [2]: induced apoptosis and inhibited migration
IC50 [4]: 1.17 µM
IC50 ([5]; Homo sapiens, Melanocyte, read-out: Half-maximal inhibitory concentration (IC50), NHEM Mean): 0.37 µM
synergistic effects with the BRAF inhibitors Vemurafenib and/or Dabrafenib (in words) [6]: clear synergistic effects
long-term cell growth under drug until day 76 (in words) ([7]; drugs replenished every 72 h, indicated concentrations): inconsistent
IC50 [8]: 0.328 µM

IC50 [1]: 0.325 µM
IC50 [3]: 0.809 µM
SMILES: C=CCn1c(=O)c2cnc(Nc3ccc(N4CCN(C)CC4)cc3)nc2n1-c1cccc(C(C)(C)O)n1 [MK-1775, reference compound]
IC50 [9]: 0.201 µM
IC50 [10]: 0.289 µM
IC50 [11]: 0.257 µM
body weight and side effects during treatment (in words) [12]: did not lose weight
cell viability (kinase inhibitor library screening) ([13]; 1μΜ): 20.4
cell viability (kinase inhibitor library screening) ([13]; 10μΜ): 9.8
cell viability (kinase inhibitor library screening) ([14]; 1μΜ): 46.6
cell viability (kinase inhibitor library screening) ([14]; 10μΜ): 41.7
cell viability (kinase inhibitor library screening) ([15]; 1μΜ): 35.1
cell viability (kinase inhibitor library screening) ([15]; 10μΜ): 24.2
cell viability (kinase inhibitor library screening) ([16]; 1μΜ): 43.8
cell viability (kinase inhibitor library screening) ([16]; 10μΜ): 8.7
cell viability (kinase inhibitor library screening) ([17]; 1μΜ): 45.0
cell viability (kinase inhibitor library screening) ([17]; 10μΜ): 36.2
cell viability (kinase inhibitor library screening) ([18]; 1μΜ): 11.1
cell viability (kinase inhibitor library screening) ([18]; 10μΜ): 6.5
cell viability (kinase inhibitor library screening) ([19]; 1μΜ): 25.2
cell viability (kinase inhibitor library screening) ([19]; 10μΜ): 4.9
cell viability (kinase inhibitor library screening) ([20]; 1μΜ): 17.5
cell viability (kinase inhibitor library screening) ([20]; 10μΜ): 1.8
cell viability (kinase inhibitor library screening) ([21]; 1μΜ): 27.8
cell viability (kinase inhibitor library screening) ([21]; 10μΜ): 24.0
Cleavage of PARP (in words) [22]: induced
effect on healthy cells, cell viability (in words) ([4]; fibroblasts (NHDF)): very modest effects
effect on healthy cells, cell viability (in words) ([5]; melanocytes (NHEM)): very modest effects
synergistic effects with the BRAF inhibitors Vemurafenib and/or Dabrafenib (in words) [6]: clear synergistic effects
IC50 [23]: 0.289 µM
inhibitory CDK1 (cdc2) phosphorylation level (in words) [24]: reduced levels of inhibitory CDK1 (cdc2) phosphorylation
IC50 [25]: 0.22 µM
IC50 [26]: 0.286 µM
IC50 [8]: 0.388 µM

IC50 [1]: 0.015 µM
IC50 [3]: 0.021 µM
SMILES: CC[C@@H]1C(=O)N(C)c2cnc(Nc3ccc(C(=O)N[C@H]4CC[C@H](N5CCN(CC6CC6)CC5)CC4)cc3OC)nc2N1C(C)C [Volasertib]
effect on melanoma tumors in vivo (in words) [27]: delay growth of melanoma tumors and to cause regression by inducing apoptosis in vivo
IC50 [4]: 0.075 µM
synergistic effects with the BRAF inhibitors Vemurafenib and/or Dabrafenib (in words) [6]: synergistic effects only with Dabrafenib
regrowth after removal of drugs (after day 76, by day 97) (in words) [7]: had started to grow back
long-term cell growth under drug until day 76 (in words) ([7]; 40 nM (also 20 nM, data not shown)): killed all cells
IC50 [8]: 0.021 µM
